Measured values: ChEMBL document CHEMBL6103591, “Discovery of naphthoquinone-furo-piperidone derivatives as dual targeting agents of STAT3 and NQO1 for the treatment of breast cancer” (Eur J Med Chem, 2025)
The source made the active and inactive calls. No cut-off for these calls is given here.

What was measured:
MDA-MB-231 [1] = assay: Antiproliferative activity against human MDA-MB-231 cells assessed as reduction in cell viability incubated for 48 hrs by MTT assay; format: functional, cell-based; conditions: MDA-MB-231, 48 h
MDA-MB-468 [2] = assay: Antiproliferative activity against human MDA-MB-468 cells assessed as reduction in cell viability incubated for 48 hrs by MTT assay; format: functional, cell-based; conditions: MDA-MB-468, 48 h
MDA-MB-231 [3] = assay: Induction of apoptosis in human MDA-MB-231 cells assessed as late apoptotic cells at 3 uM measured after 24 hrs by Annexin V/propidium iodide (PI) double staining based flow cytometric analysis (reference value: 2.22 %); format: functional
MDA-MB-468 [4] = assay: Induction of apoptosis in human MDA-MB-468 cells assessed as early apoptotic cells at 3 uM measured after 24 hrs by Annexin V/propidium iodide (PI) double staining based flow cytometric analysis (reference value: 2.94 %); format: functional
MDA-MB-231 [5] = assay: Induction of apoptosis in human MDA-MB-231 cells assessed as early apoptotic cells at 3 uM measured after 24 hrs by Annexin V/propidium iodide (PI) double staining based flow cytometric analysis (reference value: 1.98 %); format: functional
MDA-MB-468 [6] = assay: Induction of apoptosis in human MDA-MB-468 cells assessed as late apoptotic cells at 3 uM measured after 24 hrs by Annexin V/propidium iodide (PI) double staining based flow cytometric analysis (reference value: 2.24 %); format: functional
[7] = target: Signal transducer and activator of transcription 3 (Homo sapiens, UniProt P40763); assay: Inhibition of STAT3 activation in human MDA-MB-231 cells assessed as reduction in STAT3 phosphorylation at Tyr705 residue at 1 uM measured after 24 hrs by Western blot analysis relative to control; format: cell-based
MDA-MB-231 [8] = assay: Downregulation of total STAT3 expression in human MDA-MB-231 cells at 1 uM incubated for 24 hrs by Western blotting analysis; format: functional, cell-based
MCF7 = assay: Antiproliferative activity against human MCF7 cells incubated for 48 hrs by MTT assay; format: functional, cell-based; conditions: MCF7, 48 h

Sequence of Signal transducer and activator of transcription 3 (P40763 whole entry): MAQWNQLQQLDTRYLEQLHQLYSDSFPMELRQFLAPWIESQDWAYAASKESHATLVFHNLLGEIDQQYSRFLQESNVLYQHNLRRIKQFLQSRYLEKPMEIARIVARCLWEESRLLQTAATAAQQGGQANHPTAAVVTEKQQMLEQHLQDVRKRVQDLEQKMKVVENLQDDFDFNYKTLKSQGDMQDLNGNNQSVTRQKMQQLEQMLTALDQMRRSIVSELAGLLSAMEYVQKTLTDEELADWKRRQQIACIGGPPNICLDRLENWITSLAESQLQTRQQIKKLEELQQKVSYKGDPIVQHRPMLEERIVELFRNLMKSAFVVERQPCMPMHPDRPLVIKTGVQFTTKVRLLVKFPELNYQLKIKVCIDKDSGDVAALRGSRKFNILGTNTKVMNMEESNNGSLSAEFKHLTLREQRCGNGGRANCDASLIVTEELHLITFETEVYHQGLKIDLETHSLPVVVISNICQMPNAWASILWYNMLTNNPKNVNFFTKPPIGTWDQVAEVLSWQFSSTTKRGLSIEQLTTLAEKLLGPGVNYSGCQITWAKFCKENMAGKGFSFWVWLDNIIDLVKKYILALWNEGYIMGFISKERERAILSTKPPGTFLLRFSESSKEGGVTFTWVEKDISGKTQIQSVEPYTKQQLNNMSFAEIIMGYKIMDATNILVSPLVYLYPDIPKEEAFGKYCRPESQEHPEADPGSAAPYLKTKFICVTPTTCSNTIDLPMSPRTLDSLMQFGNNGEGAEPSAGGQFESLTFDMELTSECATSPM

SMILES	IC50 (MDA-MB-231 [1])	IC50 (MDA-MB-468 [2])	further results
O=C1C(=O)c2c(oc3c(=O)n(CCN4CCCCC4)ccc23)-c2ccccc21	0.88 µM	0.63 µM	–
COC(=O)[C@H](Cc1ccc(O)cc1)N1CCc2c(oc3c2C(=O)C(=O)c2ccccc2-3)C1=O	3.33 µM	2.43 µM	–
CN1CCN(CCCN2CCc3c(oc4c3C(=O)C(=O)c3ccccc3-4)C2=O)CC1	0.75 µM	0.77 µM	–
COC(=O)CCN1CCc2c(oc3c2C(=O)C(=O)c2ccccc2-3)C1=O	2.53 µM	2.42 µM	–
CN(C)CCn1ccc2c3c(oc2c1=O)-c1ccccc1C(=O)C3=O	0.84 µM	1.21 µM	–
CC(=O)c1cc2c(o1)C(=O)c1ccccc1C2=O [NAPABUCASIN]	3.5 µM	3.59 µM	Activity (MDA-MB-231 [3]): 6.23%; Activity (MDA-MB-468 [4]): 8.87%; Activity (MDA-MB-231 [5]): 3.34%; Activity (MDA-MB-468 [6]): 6%
C[C@@H](C(N)=O)N1CCc2c(oc3c2C(=O)C(=O)c2ccccc2-3)C1=O	3.51 µM	2.89 µM	–
O=C1C(=O)c2c(oc3c2CCN(CCCN2CCOCC2)C3=O)-c2ccccc21	0.74 µM	1.24 µM	–
C[C@@H]1CN(CCCN2CCc3c(oc4c3C(=O)C(=O)c3ccccc3-4)C2=O)CCO1	0.68 µM	1.58 µM	–
O=C1C(=O)c2c(oc3c2CCN(CCCN2CCCCC2)C3=O)-c2ccccc21	0.33 µM	1.2 µM	inhibition [7]: 100%; Activity (MDA-MB-231 [8]): Active
CN(C)CCCN1CCc2c(oc3c2C(=O)C(=O)c2ccccc2-3)C1=O	0.74 µM	1.43 µM	–
O=C1C(=O)c2c(oc3c2CCN(CCCCO)C3=O)-c2ccccc21	2.29 µM	3.07 µM	–
O=C1C(=O)c2c(oc3c2CCN(CCCn2ccnc2)C3=O)-c2ccccc21	2.94 µM	2.37 µM	–
CC1(C)CCC2=C(O1)c1ccccc1C(=O)C2=O [LAPACHONE]	–	–	IC50 (MCF7): 3.99 µM
C[C@@H]1CN(CCCN2CCc3c(oc4c3C(=O)C(=O)c3ccccc3-4)C2=O)C[C@H](C)N1	> 4 µM	2.49 µM	–
COC(=O)[C@H](Cc1ccccc1)N1CCc2c(oc3c2C(=O)C(=O)c2ccccc2-3)C1=O	0.93 µM	2.42 µM	–
CNC(=O)[C@H](CC(C)C)N1CCc2c(oc3c2C(=O)C(=O)c2ccccc2-3)C1=O	1.93 µM	2.32 µM	–
O=C1C(=O)c2c(oc3c2CCN(CCC(=O)N2CCOCC2)C3=O)-c2ccccc21	3.05 µM	2.24 µM	–
CNC(=O)[C@H](C)N1CCc2c(oc3c2C(=O)C(=O)c2ccccc2-3)C1=O	2.62 µM	1.38 µM	–
O=CN1CCN(CCCN2CCc3c(oc4c3C(=O)C(=O)c3ccccc3-4)C2=O)CC1	3.27 µM	3.69 µM	–
O=C1C(=O)c2c(oc3c2CCN(CCO)C3=O)-c2ccccc21	0.75 µM	1.43 µM	–
CCN(CC)CCCN1CCc2c(oc3c2C(=O)C(=O)c2ccccc2-3)C1=O	0.65 µM	1.07 µM	inhibition [7]: Active
O=C1C(=O)c2c(oc3c2CCN(CCCN2CCCC2)C3=O)-c2ccccc21	0.91 µM	1.33 µM	–

SMILES	IC50 (MDA-MB-231 [1])	IC50 (MDA-MB-468 [2])	further results
CCN(CC)CCn1ccc2c3c(oc2c1=O)-c1ccccc1C(=O)C3=O	1.84 µM	1.18 µM	–
O=C1C(=O)c2c(oc3c2CCN([C@H](CO)Cc2ccc(O)cc2)C3=O)-c2ccccc21	> 4 µM	2.62 µM	–
O=C1C(=O)c2c(oc3c2CCN(C2CCC(N4CCOCC4)CC2)C3=O)-c2ccccc21 (stereo not drawn)	1.23 µM	1.29 µM	–
C[C@H]1CN(CCCN2CCc3c(oc4c3C(=O)C(=O)c3ccccc3-4)C2=O)CCO1	0.8 µM	1.72 µM	–
O=C1C(=O)c2c(oc3c2CCN(CCC(=O)N2CCCCC2)C3=O)-c2ccccc21	3.69 µM	2.5 µM	–
O=C1C(=O)c2c(oc3c2CCN(CCCN2CC4(COC4)C2)C3=O)-c2ccccc21	0.92 µM	1.46 µM	–
CCN(CC)CCN1CCc2c(oc3c2C(=O)C(=O)c2ccccc2-3)C1=O	0.61 µM	1.31 µM	inhibition [7]: Active
COC(=O)CN1CCc2c(oc3c2C(=O)C(=O)c2ccccc2-3)C1=O	1.5 µM	1.55 µM	–
CN(C)CCN1CCc2c(oc3c2C(=O)C(=O)c2ccccc2-3)C1=O	0.54 µM	1.56 µM	inhibition [7]: Active
O=C1C(=O)c2c(oc3c2CCN(CCCO)C3=O)-c2ccccc21	1.14 µM	2.23 µM	–
O=C1C(=O)c2c(oc3c2CCN([C@H](CO)Cc2ccccc2)C3=O)-c2ccccc21	0.93 µM	2.42 µM	–
CC(C)C[C@@H](CO)N1CCc2c(oc3c2C(=O)C(=O)c2ccccc2-3)C1=O	2.49 µM	2.45 µM	–
CN1CCN(CCN2CCc3c(oc4c3C(=O)C(=O)c3ccccc3-4)C2=O)CC1	1.3 µM	0.41 µM	–
COC(=O)[C@H](C)N1CCc2c(oc3c2C(=O)C(=O)c2ccccc2-3)C1=O	0.68 µM	1.21 µM	–
COC(=O)CCCN1CCc2c(oc3c2C(=O)C(=O)c2ccccc2-3)C1=O	2.51 µM	2.37 µM	–
O=C1C(=O)c2c(oc3c2CCN(CCN2CCOCC2)C3=O)-c2ccccc21	1.08 µM	1.96 µM	–
C[C@@H](CO)N1CCc2c(oc3c2C(=O)C(=O)c2ccccc2-3)C1=O	0.64 µM	1.31 µM	–
CNC(=O)[C@H](Cc1ccccc1)N1CCc2c(oc3c2C(=O)C(=O)c2ccccc2-3)C1=O	3.07 µM	2.55 µM	–
COC(=O)CC[C@@H](C(=O)OC)N1CCc2c(oc3c2C(=O)C(=O)c2ccccc2-3)C1=O	3.48 µM	2.37 µM	–
O=C1C(=O)c2c(oc3c2CCN([C@H](CO)CCCO)C3=O)-c2ccccc21	> 4 µM	> 4 µM	–
COC(=O)[C@H](CC(C)C)N1CCc2c(oc3c2C(=O)C(=O)c2ccccc2-3)C1=O	2.44 µM	2.66 µM	–
COC(=O)[C@H](CO)N1CCc2c(oc3c2C(=O)C(=O)c2ccccc2-3)C1=O	3.78 µM	1.46 µM	–
